One assay relates to Vero. The experiment in a line: cells. The format is ADME, cell-based. As to conditions: Chlorocebus sabaeus, 72 h; call rule not given here.
Assay [1] deals with T1, Estrogen receptor (Homo sapiens) (UniProt P03372).
T1 sequence (whole entry): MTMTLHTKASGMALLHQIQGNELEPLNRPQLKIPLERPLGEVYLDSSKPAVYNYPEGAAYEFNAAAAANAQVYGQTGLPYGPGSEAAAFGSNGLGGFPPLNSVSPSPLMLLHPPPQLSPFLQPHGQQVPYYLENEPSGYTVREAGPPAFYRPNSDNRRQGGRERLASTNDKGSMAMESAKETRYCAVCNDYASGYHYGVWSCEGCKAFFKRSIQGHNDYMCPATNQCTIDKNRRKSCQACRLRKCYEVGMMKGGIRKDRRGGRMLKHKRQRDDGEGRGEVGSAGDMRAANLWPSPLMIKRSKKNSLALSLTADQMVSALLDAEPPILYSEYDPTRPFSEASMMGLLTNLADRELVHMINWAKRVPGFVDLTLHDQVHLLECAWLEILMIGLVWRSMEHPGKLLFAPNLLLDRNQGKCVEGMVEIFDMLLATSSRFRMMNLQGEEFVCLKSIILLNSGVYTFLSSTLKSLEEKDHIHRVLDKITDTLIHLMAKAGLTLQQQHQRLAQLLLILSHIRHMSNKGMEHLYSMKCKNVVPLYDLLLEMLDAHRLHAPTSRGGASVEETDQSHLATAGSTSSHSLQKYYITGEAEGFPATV
The experiment in a line: Agonist activity at ER-alpha (unknown origin) transfected in HEK293T cells assessed as stimulation of transcriptional activity after 24 hrs by luciferase reporter gene assay relative to 17-beta estradiol. It counts as cell-based. To be noted: HEK-293T.

For assay [2], the target named is T2, Estrogen receptor (Homo sapiens, UniProt P03372).
T2 sequence (P03372 whole entry): T1 sequence (whole entry)
The experiment in a line: Binding affinity to human ER-alpha ligand binding domain after 2 hrs by competitive fluorometric binding assay.

For the next assay, the system named is MCF7. The experiment in a line: cells. It counts as functional, cell-based. As to conditions: Homo sapiens, MCF7, 72 h.
Assay [3] concerns the target T3, Estrogen receptor beta (Homo sapiens, UniProt Q92731). The experiment in a line: Agonist activity at ER-beta (unknown origin) transfected in HEK293T cells assessed as stimulation of transcriptional activity after 24 hrs by luciferase reporter gene assay. It counts as cell-based, HEK-293T.
In assay [4] the target is T3, Estrogen receptor beta. The experiment in a line: Antagonist activity at ER-beta (unknown origin) transfected in HEK293T cells assessed as inhibition of transcriptional activity after 24 hrs by luciferase reporter gene assay relative to 17-beta estradiol. It counts as cell-based. As to conditions: HEK-293T.
The target in assay [5] is T3, Estrogen receptor beta. The experiment in a line: Agonist activity at ER-beta (unknown origin) transfected in HEK293T cells assessed as stimulation of transcriptional activity after 24 hrs by luciferase reporter gene assay relative to 17-beta estradiol. It counts as cell-based. As to conditions: HEK-293T. On the technique in general: A reporter such as luciferase makes a cellular process visible.

A further assay deals with DU-145. The experiment in a line: cells. It counts as functional, cell-based. As to conditions: Homo sapiens, DU-145, 72 h.
Assay [6] addresses T1, Estrogen receptor (Homo sapiens). The experiment in a line: Antagonist activity at ER-alpha (unknown origin) transfected in HEK293T cells assessed as inhibition of transcriptional activity after 24 hrs by luciferase reporter gene assay relative to 17-beta estradiol. It counts as cell-based. To be noted: HEK-293T.
The target of assay [7] is T2, Estrogen receptor. Put plainly: Antagonist activity at ER-alpha (unknown origin) transfected in HEK293T cells assessed as inhibition of transcriptional activity after 24 hrs by luciferase reporter gene assay. The format is cell-based, HEK-293T.
Assay [8] deals with T3, Estrogen receptor beta. Put plainly: Binding affinity to human ER-beta ligand binding domain after 2 hrs by competitive fluorometric binding assay.
The target of assay [9] is T4, Protein deacetylase HDAC6 (Homo sapiens, UniProt Q9UBN7).
T4 sequence (Q9UBN7 whole entry): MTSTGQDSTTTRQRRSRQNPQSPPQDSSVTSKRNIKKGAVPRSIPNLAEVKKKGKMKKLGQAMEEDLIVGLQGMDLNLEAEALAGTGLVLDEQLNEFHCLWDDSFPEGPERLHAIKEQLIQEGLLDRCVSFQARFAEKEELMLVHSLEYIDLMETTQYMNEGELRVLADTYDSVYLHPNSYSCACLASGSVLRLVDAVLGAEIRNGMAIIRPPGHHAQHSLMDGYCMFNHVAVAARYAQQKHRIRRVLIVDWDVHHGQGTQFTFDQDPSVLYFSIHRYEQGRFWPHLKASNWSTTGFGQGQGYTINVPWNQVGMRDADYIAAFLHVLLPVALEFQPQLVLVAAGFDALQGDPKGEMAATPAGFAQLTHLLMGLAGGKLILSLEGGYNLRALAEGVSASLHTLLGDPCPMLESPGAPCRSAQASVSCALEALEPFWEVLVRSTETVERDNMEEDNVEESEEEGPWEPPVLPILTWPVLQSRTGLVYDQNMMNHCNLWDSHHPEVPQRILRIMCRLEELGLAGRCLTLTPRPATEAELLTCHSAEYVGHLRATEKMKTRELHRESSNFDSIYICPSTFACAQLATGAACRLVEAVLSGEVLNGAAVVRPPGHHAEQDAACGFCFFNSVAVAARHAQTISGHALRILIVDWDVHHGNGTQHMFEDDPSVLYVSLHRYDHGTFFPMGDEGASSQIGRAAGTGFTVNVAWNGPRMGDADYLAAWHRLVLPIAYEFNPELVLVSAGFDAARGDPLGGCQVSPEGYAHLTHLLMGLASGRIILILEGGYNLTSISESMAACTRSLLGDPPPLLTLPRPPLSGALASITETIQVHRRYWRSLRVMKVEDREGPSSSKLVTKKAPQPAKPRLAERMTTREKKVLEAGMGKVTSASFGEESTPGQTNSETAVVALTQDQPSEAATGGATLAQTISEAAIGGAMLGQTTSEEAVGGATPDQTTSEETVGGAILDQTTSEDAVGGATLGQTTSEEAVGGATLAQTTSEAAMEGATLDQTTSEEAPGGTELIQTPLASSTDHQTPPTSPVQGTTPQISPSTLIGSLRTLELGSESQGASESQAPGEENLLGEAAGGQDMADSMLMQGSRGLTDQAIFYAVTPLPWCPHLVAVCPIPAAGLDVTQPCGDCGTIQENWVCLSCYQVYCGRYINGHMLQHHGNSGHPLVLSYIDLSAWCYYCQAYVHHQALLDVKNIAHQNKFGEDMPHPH
The experiment in a line: Inhibition of human recombinant HDAC6 after 15 mins by fluorogenic assay.

Another assay concerns the target Histone deacetylase 1 (Homo sapiens, UniProt Q13547). Put plainly: Inhibition of human recombinant HDAC1 after 15 mins by fluorogenic assay.

Histone deacetylase 1, sequence (Q13547 whole entry): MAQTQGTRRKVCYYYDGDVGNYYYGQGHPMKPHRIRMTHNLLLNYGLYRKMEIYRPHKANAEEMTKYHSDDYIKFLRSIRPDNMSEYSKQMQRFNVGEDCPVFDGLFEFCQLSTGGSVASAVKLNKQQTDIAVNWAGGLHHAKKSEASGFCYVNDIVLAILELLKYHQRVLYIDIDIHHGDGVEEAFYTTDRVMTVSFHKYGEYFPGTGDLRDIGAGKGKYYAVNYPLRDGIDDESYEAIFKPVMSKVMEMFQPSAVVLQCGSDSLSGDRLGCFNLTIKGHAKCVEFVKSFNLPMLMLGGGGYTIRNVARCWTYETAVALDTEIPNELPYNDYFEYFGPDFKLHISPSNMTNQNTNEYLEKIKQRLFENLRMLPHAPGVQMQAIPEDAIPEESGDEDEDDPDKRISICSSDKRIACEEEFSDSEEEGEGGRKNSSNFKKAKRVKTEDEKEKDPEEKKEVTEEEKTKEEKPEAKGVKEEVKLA
T3 sequence (Q92731 whole entry): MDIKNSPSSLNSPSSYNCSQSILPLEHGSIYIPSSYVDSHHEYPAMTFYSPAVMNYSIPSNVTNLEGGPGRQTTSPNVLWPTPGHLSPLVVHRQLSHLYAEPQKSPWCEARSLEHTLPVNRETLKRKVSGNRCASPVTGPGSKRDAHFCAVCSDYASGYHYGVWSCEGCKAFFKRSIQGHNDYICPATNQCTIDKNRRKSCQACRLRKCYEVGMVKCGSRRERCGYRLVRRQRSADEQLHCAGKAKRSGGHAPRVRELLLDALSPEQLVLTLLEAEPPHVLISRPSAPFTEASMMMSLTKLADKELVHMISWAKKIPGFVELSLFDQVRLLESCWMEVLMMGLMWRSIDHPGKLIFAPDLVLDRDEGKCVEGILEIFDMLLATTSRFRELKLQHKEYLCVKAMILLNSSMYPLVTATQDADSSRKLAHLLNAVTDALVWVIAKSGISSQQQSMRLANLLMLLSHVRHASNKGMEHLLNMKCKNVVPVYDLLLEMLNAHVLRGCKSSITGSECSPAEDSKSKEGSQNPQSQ

As to `O=C(CCCCCCC(=O)Nc1ccc(C2=C(c3ccc(O)cc3)C3CC(S(=O)(=O)Oc4ccccc4)C2O3)cc1)NO` (racemic), the results for the IC50 with Vero, in the assay with MCF7 and in the assay with DU-145 were greater than 100 µM, 30.1 µM and 37.7 µM, respectively. In addition, the Efficacy in assay [1] was 20%; on Estrogen receptor beta [4], 92%; at Estrogen receptor beta [5] it was 38%; in assay [6], 77%. Moreover, on Estrogen receptor [2], the Ki – broadly, a dissociation constant, usually derived from enzyme kinetics or from competition with a known ligand – was greater than 5 µM. The concentration giving a half-maximal response (EC50) (usually the midpoint of the concentration-response curve) at Estrogen receptor beta [3] turned out to be 0.002 µM.

Turning to `O=C(O)CCCCCCC(=O)Nc1ccc(C2=C(c3ccc(O)cc3)C3CC(S(=O)(=O)Oc4ccccc4O)C2O3)cc1` (racemic), the IC50 – broadly, the concentration needed to halve the response being measured – on Estrogen receptor [7] is 0.14 µM; in the assay on Vero, greater than 100 µM; in the assay on MCF7, 27.9 µM; in the assay with DU-145, 27.7 µM. Besides, the Efficacy in assay [1] worked out at 12%; at Estrogen receptor beta [4], 87%; at Estrogen receptor beta [5] it was 37%; in assay [6] it was 24%.

As for `Cc1ccc(OS(=O)(=O)C2CC3OC2C(c2ccc(NC(=O)CCCCCCC(=O)O)cc2)=C3c2ccc(O)cc2)cc1` (racemic), the half-maximal inhibitory concentration (IC50) was 1.08 µM at Estrogen receptor [7], greater than 100 µM in the assay with Vero, 60.5 µM in the assay on MCF7 and 80.8 µM in the assay on DU-145. Besides, the Efficacy was -6% in assay [1], 111% on Estrogen receptor beta [4], 8% on Estrogen receptor beta [5] and 36% in assay [6]. Besides, the EC50 at Estrogen receptor beta [3] came to 0.52 µM. On Estrogen receptor beta [8], this molecule returned an inhibition constant Ki of 0.0873 µM.

For `O=C(O)CCCCCCC(=O)Nc1ccc(C2=C(c3ccc(O)cc3)C3CC(S(=O)(=O)Oc4cccc5ccccc45)C2O3)cc1` (stereo not drawn), the Efficacy is 5% in [1], 15% at Estrogen receptor beta [4], -13% on Estrogen receptor beta [5] and 14% in assay [6]. In addition, the IC50 with MCF7 is 4.7 µM; in assay [9], “Not Active”; with DU-145, 48.6 µM; at Histone deacetylase 1, “Not Active”.

As for `O=C(CCCCCCC(=O)Nc1ccc(C2=C(c3ccc(O)cc3)C3CC(S(=O)(=O)Oc4ccc(F)cc4)C2O3)cc1)NO` (racemic), the IC50 with Vero was greater than 100 µM; with MCF7, 23.4 µM; with DU-145, 47.3 µM. In addition, the values for the Ki at Estrogen receptor [2] and at Estrogen receptor beta [8] were greater than 5 µM and 3.4 µM, respectively. At Estrogen receptor beta [3], the 50% effective concentration (EC50) was determined as 0.002 µM. In addition, the figures for the Efficacy (at Estrogen receptor beta [4]; at Estrogen receptor beta [5]; in [6]) were 86%, 49% and 135%, respectively.

As to `O=S(=O)(Oc1ccccc1)[C@H]1C[C@H]2O[C@@H]1C(c1ccc(O)cc1)=C2c1ccc(O)cc1` (relative stereo), the 50% inhibitory concentration (IC50) in the assay on Vero is greater than 100 µM; with MCF7 it was 20.9 µM; in assay [9], “Not Active”; in the assay with DU-145, greater than 100 µM; on Histone deacetylase 1, “Not Active”.

Turning to `Cc1cccc(OS(=O)(=O)C2CC3OC2C(c2ccc(NC(=O)CCCCCCC(=O)O)cc2)=C3c2ccc(O)cc2)c1` (racemic), the Efficacy in assay [1] was -28%; at Estrogen receptor beta [4], 87%; at Estrogen receptor beta [5] it was -11%; in [6], 43%. The IC50 with MCF7 is 3.8 µM; in assay [9], “Not Active”; with DU-145, 52.4 µM; at Histone deacetylase 1 (read-out: IC50), 2.98 µM.

On to `O=C(O)CCCCCCC(=O)Nc1ccc(C2=C(c3ccc(O)cc3)C3CC(S(=O)(=O)Oc4ccccc4C(F)(F)F)C2O3)cc1` (racemic), for which the 50% inhibitory concentration (IC50) is 0.64 µM at Estrogen receptor [7], greater than 100 µM with Vero, 26.1 µM in the assay on MCF7 and greater than 100 µM with DU-145. For the same molecule, the Efficacy in [1] worked out at 9%; on Estrogen receptor beta [4], 102%; on Estrogen receptor beta [5] it was 10%; in [6], 37%. Also, the affinity at Estrogen receptor [2] corresponds to a Ki of 3.87 µM.

Take `COc1ccccc1OS(=O)(=O)C1CC2OC1C(c1ccc(NC(=O)CCCCCCC(=O)NO)cc1)=C2c1ccc(O)cc1` (racemic): the values for the 50% inhibitory concentration (IC50) with Vero, with MCF7 and with DU-145 were greater than 100 µM, 25.8 µM and 44.7 µM, respectively. Further, the Efficacy was found to be 9% in assay [1], 74% at Estrogen receptor beta [4], 53% on Estrogen receptor beta [5] and 164% in assay [6]. The Ki on Estrogen receptor [2] was greater than 5 µM. On Estrogen receptor beta [3], the EC50 came out at 0.023 µM.

For the molecule `O=C(CCCCCCC(=O)Nc1ccc(C2=C(c3ccc(O)cc3)C3CC(S(=O)(=O)Oc4cccc5ccccc45)C2O3)cc1)NO` (racemic), the 50% inhibitory concentration (IC50) in the assay on Vero is greater than 100 µM; in the assay with MCF7, 13.4 µM; in assay [9] (read-out: IC50), 0.03 µM; in the assay with DU-145 it was 8.57 µM; on Histone deacetylase 1 it was “Not Active”. For the same molecule, the Efficacy in assay [1] was -22%; at Estrogen receptor beta [4], 94%; on Estrogen receptor beta [5], 36%; in assay [6], 88%. Further, the inhibition constant (Ki) on Estrogen receptor [2] is greater than 5 µM.

Consider `Cc1ccccc1OS(=O)(=O)C1CC2OC1C(c1ccc(NC(=O)CCCCCCC(=O)NO)cc1)=C2c1ccc(O)cc1` (racemic), for which the IC50 with Vero is greater than 100 µM; in the assay on MCF7, 24.1 µM; with DU-145 it was 30.7 µM. Besides, the Efficacy is -20% in assay [1], 94% on Estrogen receptor beta [4], 27% at Estrogen receptor beta [5] and 126% in assay [6]. Besides, the values for the inhibition constant (Ki) on Estrogen receptor [2] and on Estrogen receptor beta [8] were greater than 5 µM and 2.12 µM, respectively. Moreover, at Estrogen receptor beta [3], the EC50 was 0.203 µM.

`Cc1ccc(OS(=O)(=O)C2CC3OC2C(c2ccc(NC(=O)CCCCCCC(=O)NO)cc2)=C3c2ccc(O)cc2)cc1` (racemic): the IC50 in the assay on Vero was greater than 100 µM; in the assay on MCF7, 40.4 µM; with DU-145 it was 42.9 µM. The Efficacy in assay [1] was -28%; on Estrogen receptor beta [4], 95%; on Estrogen receptor beta [5] it was 52%; in assay [6], 116%. The Ki at Estrogen receptor [2] and at Estrogen receptor beta [8] was greater than 5 µM throughout. For the same molecule, the EC50 at Estrogen receptor beta [3] is 0.038 µM.

Turning to `O=C(O)CCCCCCC(=O)Nc1cccc(OS(=O)(=O)C2CC3OC2C(c2ccc(O)cc2)=C3c2ccc(O)cc2)c1` (stereo not drawn), the half-maximal inhibitory concentration (IC50) in the assay with Vero, in the assay on MCF7 and in the assay with DU-145 was greater than 100 µM in each case. Further, the Efficacy stood at 51% in assay [1], 102% at Estrogen receptor beta [4], 47% on Estrogen receptor beta [5] and 122% in [6]. In addition, the 50% effective concentration (EC50) on Estrogen receptor beta [3] amounted to 2.1 µM.

(Values after ChEMBL document CHEMBL3588800, “Novel Bioactive Hybrid Compound Dual Targeting Estrogen Receptor and Histone Deacetylase for the Treatment of Breast Cancer” (J Med Chem, 2015).)
